Test results published in article PMC8180025, “Antibacterial, antifungal and antioxidant activities of whole plant chemical constituents of Rumex abyssinicus” (BMC Complementary Medicine and Therapies, 2021).
In brackets after ≈: the same amount, converted by molar mass. Several values for one entry are separate records, joined by “and”; a condition that tells them apart may be missing. Equal entries are not always repeated. Marks after values point to notes of the source that are not given here.

Tests used:
[1] = test system: red blood cells (RBCs); assay type: cell-based, Wistar rats (Rattus novergicus)
Procedure: Three male Wistar rats (Rattus novergicus), aged 10–12 weeks and weighing 230 to 240 g were used. These animals were bred in the animal house of the University of Dschang, Cameroon. Efforts were also made to minimize animal suffering and to reduce the number of animal used in the experiment. All the rats were anaesthesized via intraperitoneal injection of the mixture of ketamine (50 mg/ kg body weight, BW) and xylazine (10 mg /kg BW), in a dose that is commonly used for operation purposes. Subsequently the unconscious animals were decapitated swiftly and the whole blood (10 mL) was collected by cardiac puncture into a conical tube containing Ethylene Diamine Tetra Acetic Acid (EDTA) as an anticoagulant. Erythrocytes were obtained by centrifugation at room temperature for 10 min at 1000 x g and were washed three times in PBS buffer. The cytotoxicity was evaluated as previously described.
The cytotoxic activity of extracts and isolated compounds from R. abyssinicus was studied by assessing the haemolytic activity against red blood cells (RBCs) using Triton X-100 as a positive control.

[2] = test system: MRSA03; assay: Checkerboard combination with antibiotic (FIC); assay type: cell-based, Staphylococcus aureus; settings: combined with ciprofloxacin
[3] = test system: C. neoformans; assay: Checkerboard combination with antibiotic (FIC); assay type: cell-based, Cryptococcus neoformans; settings: combined with fluconazole
[4] = Gallic acid equivalent antioxidant capacity (GEAC) assay; assay type: biochemical; settings: laccase/ABTS, 420 nm after 240 s; mean ± SD
Procedure: The GEAC test was done as previously described with slight modifications. In a quartz cuvette, to 950 μL acetate buffer (pH =5.0, 100 mM), the following were added: 20 μL laccase (1 mM stock solution), 20 μL test sample, 10 μL ABTS (2,2′-azinobis(3-ethylbenzothiazoline-6-sulfonic acid) (74 mM stock solution). The purification of laccase from Sclerotinia sclerotiorum was done according to the protocol described. The sample concentrations in the assay mixture were 800, 400, 200, 100, 10 μg/mL for the extracts and 200, 100, 50, 25, 12.5, 6.25, 3.125, 1.56 μg/mL for the isolated compounds. The content of the generated ABTS^●+ radical was measured at 420 nm after 240 s reaction time and was converted to gallic acid equivalents by the use of a calibration curve (Pearson’s correlation coefficient: r = 0.997) constructed with 0, 4, 10, 14, 28, 56, 84 μM gallic acid standards rather than Trolox. Experiments were done in triplicate.

[5] = test system: methicillin resistant S. aureus MRSA03; assay: Broth microdilution MIC/MMC
[6] = test system: P. aeruginosa; assay: Cell membrane leakage assay (260 and 280 nm absorbing material); assay type: cell-based, Pseudomonas aeruginosa; settings: at concentrations equal to or two times MIC, concentration dependent
Procedure: (§1) The alteration of cell membrane of P. aeruginosa and S. flexneri was evaluated by measuring the optical densities at 260 nm and 280 nm of the bacterial suspensions in the presence and absence of MeOH extract and compound 2 using the method described by Karsha and Lakshmi.

[7] = test system: S. flexneri; assay: Checkerboard combination with antibiotic (FIC); assay type: cell-based, Shigella flexneri; settings: combined with ciprofloxacin
Procedure: (§2) The inoculum was initially prepared as described above. The test microorganisms were inoculated into a 96-well microtitre plates and a serial dilution of two antimicrobial agents: antibiotic and MeOH extract, compound 2 or 4. Each well consisted of unique combination of test sample and antibiotic concentrations. The plates were then incubated for 24 h at 37 °C. The analyses were performed in triplicates. And the antimicrobial agents interactions were evaluated by calculating the fractional inhibitory concentration (FIC) indices. The FIC is defined as follows: MIC of antibiotic tested in combination/MIC of antibiotic tested alone + MIC of extract/compound tested in combination/MIC of extract/compound tested alone. The FIC index is interpreted as FIC ≤ 0.5: synergistic effect, 0.5 < FIC ≤1: additive effect, 1 < FIC ≤2: indifferent effect, and FIC > 2.0: antagonistic effect.

[8] = test system: P. aeruginosa; assay: Checkerboard combination with antibiotic (FIC); assay type: cell-based, Pseudomonas aeruginosa; settings: combined with ciprofloxacin
[9] = test system: Candida albicans ATCC10231; assay: Broth microdilution MIC/MMC
[10] = test system: Shigella flexneri SDINT; assay: Broth microdilution MIC/MMC
[11] = test system: MSSA01; assay: Checkerboard combination with antibiotic (FIC); assay type: cell-based, Staphylococcus aureus; settings: combined with ciprofloxacin
[12] = test system: Pseudomonas aeruginosa ATCC27853; assay: Broth microdilution MIC/MMC
[13] = test system: Staphylococcus aureus ATCC25923; assay: Broth microdilution MIC/MMC
[14] = test system: bacterial and yeast species; assay: Checkerboard combination with antibiotics, whole panel; assay type: cell-based; settings: overall statement over the microorganisms tested
Procedure: as §2

[15] = test system: methicillin sensitive S. aureus MSSA01; assay: Broth microdilution MIC/MMC
[16] = test system: S. flexneri; assay: Cell membrane leakage assay (260 and 280 nm absorbing material); assay type: cell-based, Shigella flexneri; settings: at concentrations equal to or two times MIC, concentration dependent
Procedure: as §1

[17] = DPPH free radical scavenging assay; assay type: biochemical; settings: mean ± SD, triplicate
Procedure: The free radical scavenging activity of extracts and compounds was evaluated according to described methods. The EC50 (μg/ml), which is the amount of sample necessary to inhibit by 50% the absorbance of free radical DPPH was calculated. Vitamin C was used as a standard control. All the analyses were carried out in triplicate.

[18] = test system: Cryptococcus neoformans H99; assay: Broth microdilution MIC/MMC
[19] = test system: P. aeruginosa; assay: Sugar leakage through membrane of bacteria; settings: ½ MIC, 2 MIC, 12 h
Procedure: After incubation, the mixture was centrifuged at 12,000 rpm and the supernatant was collected. The concentration of reducing sugar was determined spectrophotometrically at 550 nm using 3–5 dinitro-salicylic acid (DNS) [29].

[20] = test system: S. flexneri; assay: Sugar leakage through membrane of bacteria; assay type: cell-based, Shigella flexneri; settings: ½ MIC, 2 MIC, 12 h
[21] = test system: S. aureus; assay: Checkerboard combination with antibiotic (FIC); assay type: cell-based, Staphylococcus aureus; settings: combined with ciprofloxacin
[22] = test system: respiratory chain dehydrogenase in S. flexneri; assay type: cell-based, Shigella flexneri; settings: 0, 30, 60 min
[23] = test system: C. albicans; assay: Checkerboard combination with antibiotic (FIC); assay type: cell-based, Candida albicans; settings: combined with fluconazole
[24] = test system: respiratory chain dehydrogenase in P. aeruginosa; assay: Respiratory chain dehydrogenase enzyme activity (TTC reduction); assay type: cell-based, Pseudomonas aeruginosa; settings: increasing concentration, 0, 30, 60 min

Triton X-100
lysis of RBCs [1]: 100%

COc1cc(O)c2c(c1)C(=O)c1cc(C)cc(O)c1C2=O [Compound 2, Physcion]
FIC (fractional inhibitory concentration index) [2]: 0.5625
FICEx / FIC2 / FIC5 (MIC of extract/compound tested in combination/MIC of extract/compound tested alone) [2]: 0.5
FICA (MIC of antibiotic tested in combination/MIC of antibiotic tested alone) ([2]; 24 h at 37 °C): 0.0625
Interpretation (of FIC index) [3]: Synergistic (FIC ≤ 0.5: synergistic effect)
FIC (fractional inhibitory concentration index) ([3]; checkerboard): 0.125
FICEx / FIC2 / FIC5 (MIC of extract/compound tested in combination/MIC of extract/compound tested alone) ([3]; checkerboard): 0.0625
FICA (MIC of antibiotic tested in combination/MIC of antibiotic tested alone) ([3]; checkerboard, 24 h at 37 °C): 0.0625
Gallic acid equivalent antioxidant capacity (GEAC) [4]: 104.87 ± 1.43 μg/mL and 106.03 ± 0.87^d μg/mL
MMC/MIC ([5]; MRSA03): 2
MMC ([5]; MRSA03, sub-culturing after broth microdilution): 32 µg/mL
MIC ([5]; Staphylococcus aureus): 16 µg/mL (≈ 56.3 µM)
leakage of biological material absorbing at 260 and 280 nm [6]: induced leakage
Interpretation (of FIC index) [7]: Synergistic (FIC ≤ 0.5: synergistic effect)
FIC (fractional inhibitory concentration index) ([7]; checkerboard): 0.281
FICEx / FIC2 / FIC5 (MIC of extract/compound tested in combination/MIC of extract/compound tested alone) ([7]; checkerboard): 0.25
FICA (MIC of antibiotic tested in combination/MIC of antibiotic tested alone) ([7]; checkerboard, 24 h at 37 °C): 0.031
Interpretation (of FIC index) [8]: Synergistic (FIC ≤ 0.5: synergistic effect)
FICEx / FIC2 / FIC5 (MIC of extract/compound tested in combination/MIC of extract/compound tested alone) ([8]; checkerboard): 0.125
FICA (MIC of antibiotic tested in combination/MIC of antibiotic tested alone) ([8]; checkerboard, 24 h at 37 °C): 0.125
MMC/MIC ([9]; C. albicans): 1
MMC ([9]; C. albicans, sub-culturing after broth microdilution): 8 µg/mL
MIC ([9]; Candida albicans, ATCC10231): 8 µg/mL (≈ 28.1 µM)
MMC/MIC ([10]; S. flexneri): 2
MMC ([10]; S. flexneri, sub-culturing after broth microdilution): 16 µg/mL
MIC ([10]; Shigella flexneri): 8 µg/mL (≈ 28.1 µM)
FIC (fractional inhibitory concentration index) [11]: 0.5625
FICEx / FIC2 / FIC5 (MIC of extract/compound tested in combination/MIC of extract/compound tested alone) [11]: 0.5
FICA (MIC of antibiotic tested in combination/MIC of antibiotic tested alone) ([11]; 24 h at 37 °C): 0.0625
MMC/MIC ([12]; P. aeruginosa): 2
MMC ([12]; P. aeruginosa, sub-culturing after broth microdilution): 16 µg/mL
MIC ([12]; Pseudomonas aeruginosa, ATCC27853): 8 µg/mL (≈ 28.1 µM)
MMC/MIC ([13]; S. aureus): 1
MMC ([13]; S. aureus, sub-culturing after broth microdilution): 8 µg/mL
MIC ([13]; Staphylococcus aureus, ATCC25923): 8 µg/mL (≈ 28.1 µM)
effect of the association with ciprofloxacin (bacteria) / fluconazole (yeasts) [14]: synergistic
MMC/MIC ([15]; MSSA01): 2
MMC ([15]; MSSA01, sub-culturing after broth microdilution): 32 µg/mL
MIC ([15]; Staphylococcus aureus): 16 µg/mL (≈ 56.3 µM)
leakage of biological material absorbing at 260 and 280 nm [16]: induced leakage
DPPH free radical scavenging activity (EC50) [17]: 3.08 ± 0.44^e μg/mL
MMC/MIC ([18]; C. neoformans): 1
MMC ([18]; C. neoformans, sub-culturing after broth microdilution): 8 µg/mL
MIC ([18]; Cryptococcus neoformans, H99): 8 µg/mL (≈ 28.1 µM)
appearance of reducing sugar in the bacterial culture suspension [19]: increased
appearance of reducing sugar in the bacterial culture suspension [20]: increased
Interpretation (of FIC index) [21]: Synergistic (FIC ≤ 0.5: synergistic effect)
FIC (fractional inhibitory concentration index) ([21]; checkerboard): 0.375
FICEx / FIC2 / FIC5 (MIC of extract/compound tested in combination/MIC of extract/compound tested alone) ([21]; checkerboard): 0.125
FICA (MIC of antibiotic tested in combination/MIC of antibiotic tested alone) ([21]; checkerboard, 24 h at 37 °C): 0.25
respiratory chain dehydrogenase activity (TPF formed) [22]: significant decrease in the TPF formed
Interpretation (of FIC index) [23]: Synergistic (FIC ≤ 0.5: synergistic effect)
FIC (fractional inhibitory concentration index) ([23]; checkerboard): 0.125
FICEx / FIC2 / FIC5 (MIC of extract/compound tested in combination/MIC of extract/compound tested alone) ([23]; checkerboard): 0.0625
FICA (MIC of antibiotic tested in combination/MIC of antibiotic tested alone) ([23]; checkerboard, 24 h at 37 °C): 0.0625
respiratory chain dehydrogenase activity (TPF formed) [24]: significant decrease in the TPF formed
